Like-named read-outs stand apart in the source and are kept apart here. Where a SMILES comes first, the peptide text is derived from it. [ ]: non-standard residue; d: D form. The star is where a group is joined. ξ: configuration not given here. ξTic = O=C(O)C1Cc2ccccc2CN1; Cbz = O=C(OCc1ccccc1)*; ξV = CC(C)C(N)C(=O)O; CF3 = FC(F)(F)*
How the values were obtained:
Format in all cases: biochemical
[1] = target: Recombitant 3C - Proteinase; test: Selectivity assay: recombinant 3C-proteinase; settings: selectivity table
Plasmin = Plasmin (Homo sapiens, UniProt P00747); test: Selectivity assay: plasmin; settings: selectivity table
Urokinase = Urokinase (Homo sapiens, UniProt P00749); test: Selectivity assay: urokinase; settings: selectivity table
Cathepsin B = Cathepsin B (Homo sapiens, UniProt P07858); test: Selectivity assay: cathepsin B; settings: selectivity table
Recombitant HIV Protease = target: T1, Recombitant HIV Protease (Human immunodeficiency virus type 1 group M subtype B, UniProt P04585); test: Selectivity assay: recombinant HIV protease; settings: selectivity table
T1 construct: Recombitant HIV Protease

Human Leukocyte Elastase = target: T2, Human Leukocyte Elastase (Homo sapiens, UniProt P08246); test: Elastase inhibition in vitro, MeO-Suc-Ala-Ala-Pro-Val-pNA hydrolysis (human sputum elastase)
T2 construct: purchased Elasten Products Co., Pacific, Mo; host or cells: human sputum
T2 sequence (P08246 30-247 limits assumed): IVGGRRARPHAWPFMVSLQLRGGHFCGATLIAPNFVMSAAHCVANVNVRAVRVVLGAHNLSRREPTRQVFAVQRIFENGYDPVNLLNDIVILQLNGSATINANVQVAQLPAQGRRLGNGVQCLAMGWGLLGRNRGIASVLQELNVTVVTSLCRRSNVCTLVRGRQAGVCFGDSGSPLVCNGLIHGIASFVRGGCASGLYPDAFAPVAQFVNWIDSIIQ
Excerpt: The method of K. Nakajima et al., Journal of Biological Chemistry, 254: 4027-4032 was adapted to a microtiter format. The in vitro assay is based upon the hydrolysis of the commercially available (Sigma Chemical Company, St. Louis, Mo.) substrate methoxy O-succinyl-L-alanyl-L-alanyl-L-prolyl-L-valine para - nitroanilide (MeO-Suc-Ala-Ala-Pro-Val-pNA) and the release of para-nitroanilide (pNA), which absorbs at 405 nm.
b. Vmax Kinetic Microtiter Plate Reader, equipped with 405 nm filter (Molecular Devices)
a. Human sputum elastase (HSE) (Elasten Products Co., Pacific, Mo.) dissolved 1 mg/mL in 0.05M sodium chloride and frozen (50 μL aliquots) at -20° C. until used.
b. Stock solution of MeO-Suc-Ala-Ala-Pro-Val-pNA dissolved at 15 mM in dimethylsulfoxide (DMSO) and frozen (4 mL aliquots) at -20° C. until used.
c. Assay buffer: 0.1M tris buffer, pH 7.5 containing 0.5M sodium choloride.
Screening is performed in microtiter plates, using 0.5 mM substrate and monitored on a Microtiter Reader. Enzyme activity (+/- test compound) is determined as the rate of pNA release (linear regression analysis of slope). Inhibitory activity of the test compound is calculated relative to the uninhibited enzyme control, as follows: [formula]
A frozen aliquot of HSE is thawed and diluted with assay buffer to a stock concentration of 0.02 mg/mL (30×assay concentration). […]

Thrombin = Thrombin (Homo sapiens, UniProt P00734); test: Selectivity assay: thrombin; settings: selectivity table
Human C1 Esterase = target: T3, Human C1 Esterase (Homo sapiens, UniProt P09871); test: Selectivity assay: human C1 esterase; settings: selectivity table
T3 sequence (P09871 438-688 limits assumed): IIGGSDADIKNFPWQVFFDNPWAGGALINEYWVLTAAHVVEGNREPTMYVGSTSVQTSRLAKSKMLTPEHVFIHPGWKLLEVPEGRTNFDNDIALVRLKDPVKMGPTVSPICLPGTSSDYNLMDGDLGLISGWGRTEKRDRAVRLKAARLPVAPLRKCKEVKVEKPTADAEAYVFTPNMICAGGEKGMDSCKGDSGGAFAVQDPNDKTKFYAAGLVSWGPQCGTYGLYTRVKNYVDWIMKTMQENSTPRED
T3 sequence (P09871 16-437 partner limits assumed): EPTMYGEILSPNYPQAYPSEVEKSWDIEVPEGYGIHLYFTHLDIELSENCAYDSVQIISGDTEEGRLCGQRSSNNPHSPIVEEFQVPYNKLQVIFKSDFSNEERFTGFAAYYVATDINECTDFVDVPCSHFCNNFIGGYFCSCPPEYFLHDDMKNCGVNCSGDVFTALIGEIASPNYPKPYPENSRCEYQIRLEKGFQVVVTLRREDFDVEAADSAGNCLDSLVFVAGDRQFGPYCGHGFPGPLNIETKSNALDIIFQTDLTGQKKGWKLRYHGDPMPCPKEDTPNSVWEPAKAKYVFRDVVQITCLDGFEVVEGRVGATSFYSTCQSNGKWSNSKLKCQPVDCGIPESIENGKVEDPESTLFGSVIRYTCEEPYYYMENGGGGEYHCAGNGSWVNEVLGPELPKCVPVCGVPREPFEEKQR

Chymotrypsin = Chymotrypsin (Bos taurus, UniProt P00766); test: Selectivity assay: chymotrypsin; settings: selectivity table

Plasmin, sequence (P00747 581-810 limits assumed, species assumed): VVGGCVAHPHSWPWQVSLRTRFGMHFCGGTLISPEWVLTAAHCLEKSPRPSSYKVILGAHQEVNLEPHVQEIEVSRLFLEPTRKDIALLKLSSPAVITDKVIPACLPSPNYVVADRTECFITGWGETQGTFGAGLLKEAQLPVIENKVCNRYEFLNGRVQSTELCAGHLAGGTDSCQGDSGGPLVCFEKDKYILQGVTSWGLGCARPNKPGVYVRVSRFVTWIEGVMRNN
Plasmin, sequence (P00747 97-580 partner limits assumed, species assumed): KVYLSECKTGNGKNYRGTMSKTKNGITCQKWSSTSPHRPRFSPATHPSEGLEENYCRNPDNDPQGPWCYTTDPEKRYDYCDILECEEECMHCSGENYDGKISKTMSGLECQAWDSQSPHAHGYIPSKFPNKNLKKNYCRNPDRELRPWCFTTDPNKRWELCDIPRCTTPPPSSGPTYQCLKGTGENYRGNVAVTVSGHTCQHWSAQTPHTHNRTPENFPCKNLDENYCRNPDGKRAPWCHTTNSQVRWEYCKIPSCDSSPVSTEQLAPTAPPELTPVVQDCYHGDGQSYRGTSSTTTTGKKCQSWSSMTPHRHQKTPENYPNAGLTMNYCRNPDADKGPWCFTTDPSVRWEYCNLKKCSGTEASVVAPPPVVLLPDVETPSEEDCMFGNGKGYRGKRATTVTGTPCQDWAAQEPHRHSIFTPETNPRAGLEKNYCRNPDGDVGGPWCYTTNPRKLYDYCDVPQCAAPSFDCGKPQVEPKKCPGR

| IC50 (Human Leukocyte Elastase; Table I, in vitro inhibition, 0.5 mM substrate, pH 7.5, read-out: In Vitro IC50) [µM] | SMILES | IC50 [1] [µg/mL] | IC50 (Plasmin) [µM] | IC50 (Urokinase) [µM] | IC50 (Cathepsin B) [µM] | IC50 (Recombitant HIV Protease) [µM] | IC50 (Human Leukocyte Elastase; selectivity table, Human Leukocyte Elastase) [µg/mL] | IC50 (Thrombin) [µM] | IC50 (Human C1 Esterase) [µM] | IC50 (Chymotrypsin) [µM] |
| --- | --- | --- | --- | --- | --- | --- | --- | --- | --- | --- |
| – | CC(C)C(NC(=O)C1Cc2ccccc2CN1C(=O)[C@@H](NC(=O)c1ccc(C(=O)NS(=O)(=O)c2ccc(Cl)cc2)cc1)C(C)C)C(=O)C(F)(F)F (stereo partly drawn) [p-[p-Cl(C6 H4)SO2 NHCO](C6 H4)CO, [[4-(4-Chlorophenyl)sulfonylaminocarbonyl]phenyl-1-oxomethyl]-L-valyl-N-[3-(1,1,1-trifluoro-4-methyl-2-oxopentyl)]-1,2,3,4-tetrahydro-3-isoquinoline-carboxamide] | > 50 | > 8.01 | > 8.01 | > 8.01 | > 66.7 | 0.082 | > 8.01 | > 8.01 | > 8.01 |
| < 17.8 | CC(C)C(NC(=O)C1Cc2ccccc2CN1C(=O)[C@@H](NC(=O)OCc1ccccc1)C(C)C)C(=O)C(F)(F)F (stereo partly drawn) [CBZ] (Cbz-Val-[ξTic]-[ξV]-CF3) | – | – | – | – | – | – | – | – | – |

— patent US5232928A, “Tetrahydroisoquinoline amides” (Boehringer Ingelheim Pharmaceuticals, Inc., priority 1991, dated 1993)
